Measured values as given in patent US9669005B2, “Use of naringenin in preparing drugs for preventing and/or treatment abdominal aortic aneurysm” (priority 2013, dated 2017).

Tests used:
Assay type in all cases: in vivo
[1] = tested on: aortic aneurysms in angiotensin II induced ApoE knockout mice; assay: Formed aortic aneurysms, ApoE knockout mice, second round of angiotensin II submerging pump with naringenin gavage
Protocol: In addition, we used the method of angiotensin II subcutaneous submerging pump for 28 days (1,000 ng/kg/min), to induce abdominal aortic aneurysms on 20 weeks of male ApoE knockout mice (totally 40 mice) and used ultrasound to detect the diameters of the abdominal aortas. The diameter greater than 50% of diameter of adjacent blood vessel was used as a standard of the onset of an aortic aneurysm, and 28 mice suffered from aortic aneurysms 28 days later.
Angiotensin II submerging pump was continuously given to all the mice for 28 days. […] In the mice which had suffered from aortic aneurysms previously, 4 mice in the 14 mice by water gavage died from fracture of aortic aneurysms, the other 10 survived mice all suffered from serious aortic aneurysms (the average diameter reaches 3.00±0.58 mm).

metalloproteinase = assay: In situ zymography, angiotensin II model; conditions: AngII ApoE-/- mice; naringenin gavage; FIG. 8A
Protocol: (§1) After the aortas of mice were perfused with PBS, fresh tissue was directly embedded with OCT, put in liquid nitrogen for freezing, and then continuously sliced. Firstly, washing was performed with PBS for 3 min, thrice. A fluorescently labeled DQ-gelation-FITC substrate (Sigma-Aldrich, St. Louis, Mo.) was incubated 1 hour at 37° C. Under normal circumstances, fluorescent label for the substrate was packaged, so there is no fluorescence; after activated gelatinase degraded gelatin, green fluorescent label would be exposed. After the section was incubated, washing was performed with PBS for 3 min, thrice, and then the section was sealed. Immunofluorescence confocal microscopy was used to irradiate. The stronger fluorescence was, which means, the stronger activity of matrix metalloproteinase was.

[2] = Biochemical indexes, body weight and blood pressure of angiotensin II induced ApoE-/- mice; conditions: naringenin 50 mg/kg gavage 28 days
Protocol: Firstly, 16 weeks of male ApoE^−/− mice were randomly divided into two groups, control group (n=16) and naringenin group (n=15), respectively. And then they were anesthetized by 0.1% pentobarbital sodium, and mini pumps (model 2004, Alzet, Cupertino, Calif.) were subcutaneously submerged; angiotensin II (Sigma-Aldrich, St. Louis, Mo.) dissolved with normal saline was added to the pump, such that drugs can be continuously administrated for 4 weeks at a dosage of 1000 ng/kg/min. From the first day after surgery, gavage was daily performed to mice at constant time points, water gavage in control group, and naringenin gavage (50 mg/kg) in naringenin group. Materials were removed 28 days after gavage. Blood pressure of the mice was measured by tail cuff method with BP-89A sphygmomanometer (Beijing Softron Biotechnology Co., Ltd.), and the mice were weighted. Blood was drawn in inner canthus of the mice, and after centrifuged for 10 minutes at 6000 rotations, supernatant was removed and the blood fat levels of the mice were measured.

MMP-2 and NMP-9 = assay: Gelatin zymography, CaPO4 model; conditions: CaPO4 daubed mice; infrarenal abdominal aorta culture supernatant; FIG. 4B
Protocol: After extravasated blood in fresh removed blood vessels of infrarenal site in abdominal aortas of mice were cleared, and fat and connective tissues were removed, and blood vessels were cut into 1 cm ring, and put into 24-well plate. Blood vessels were cultured for 24 hours using 0.5 ml serum-free medium with high glucose. After the cultured supernatant protein was quantified, mercaptoethanol-free protein sample loading buffer was added, cryopreserved at −80° C. Water was used to prepare gelatin (Sigma-Aldrich, St. Louis, Mo.) into a concentration of 10 mg/ml, which was added to separation gel of protein electrophoresis according to the proportion of 1:10, causing the final concentration of gelatin as 1 mg/ml. Electrophoresis was performed in a voltage of 80V at 4° C. The gel was put into 0.25% Trixon-100 solution, and washing was performed twice in 30 minutes. […] Incubated gel was put into Coomassie brilliant blue to stain for 1-2 hours at room temperature, washed for 30 minutes with a solution having 30% methanol and 10% glacial acetic acid, a solution having 20% methanol and 10% glacial acetic acid, and a solution having 10% methanol and 5% glacial acetic acid, respectively, and then analyzed with Odyssey infrared fluorescence scanning system (LI-COR Biosciences, Lincoln, Nebr.). […]

[3] = tested on: IL-6, MCP-1, IL-10, TNF-α and IFN-γ in plasma; assay: Inflammatory factors in plasma by flow kit, angiotensin II model; conditions: AngII ApoE-/- mice, naringenin gavage, FIG. 7B
Protocol: Eyeballs of mice were removed and blood was drawn, 20 μl of heparin was added into the blood, after centrifuged at 6000 rotations and 4[…] for 10 minutes, the supernatant was aspirated. 10 μl of supernatant was taken, and 10 μl of beads were added, and then 10 μl of PE was added, washed twice with lotion after incubating for 2 hours at room temperature, and then 200 μl of lotion is added. Sorting was performed in the manner of up-flowing after blending (wherein, the flow kits of inflammatory factors of mice were purchased from BD Company).

matrix metalloproteinase = assay: In situ zymography, CaPO4 model; conditions: CaPO4 daubed mice; FIG. 4A
Protocol: as §1

[4] = tested on: macrophages and leukocytes in adventitia in vascular walls; assay: Immunohistochemical staining of inflammatory cells (Mac3, CD45) in vascular walls, CaPO4 model; conditions: CaPO4 daubed mice, FIG. 3A
Source text: In the onset of abdominal aortic aneurysm, inflammatory cell infiltration of vascular walls is a common feature. We used histochemical staining to identify inflammatory cells infiltrated in vascular walls. Mac3 is the result of immumohistochemical staining on anti-Mac3 specific antibody, representative of macrophage, and CD45 is the result of immumohistochemical staining on anti-CD45 specific antibody, representative of leukocyte.

[5] = AngII 1000 ng/kg/min ApoE-/- mice

O=C1C[C@@H](c2ccc(O)cc2)Oc2cc(O)cc(O)c21 [naringenin]
survival after the second round of angiotensin II ([1]; ApoE knockout mice with previously formed aneurysms, 14 mice, naringenin gavage, 4 of 14 died in water group): all normally survived
maximum diameter of the blood vessels (abdominal aorta, ultrasound) ([1]; ApoE knockout mice with previously formed aneurysms, naringenin gavage, second AngII round, water group 3.00±0.58): 1.62±0.45 mm
number of mice in which aortic aneurysms were observed ([1]; ApoE knockout mice with previously formed aneurysms, of 14 mice, naringenin gavage, second AngII round 28 days): 5
incidence rate of aortic aneurysms ([1]; ApoE knockout mice without aneurysm after first AngII round, 6 mice, second AngII round 28 days with naringenin gavage, control 50%): 16%
activated metalloproteinase (in situ zymography) (metalloproteinase): significantly decreases
Body weight [2, 5]: 28.9 ± 2.03 g
Cholesterol [2, 5]: 8.46 ± 2.45 mmol
High density lipoprotein [2, 5]: 56.5 ± 5.97 mg/deciliter
Low density lipoprotein [2, 5]: 44.1 ± 15.9 mg/deciliter
Triglyceride [2, 5]: 0.69 ± 0.35 mmol
Blood pressure ([2]; AngII 1000 ng/kg/min ApoE-/- mice, tail cuff method): 136.6 ± 14.27 mmHg
blood pressure and body weight ([2]; AngII ApoE-/- mice): does not have an effect
levels of cholesterol, triglyceride, and low density lipoprotein ([2]; AngII ApoE-/- mice): reduces
MMP-2 and NMP-9 (gelatin zymography) (MMP-2 and NMP-9): reverse the increase of MMP-2 and NMP-9 caused by CaPO4 daubing
IL-10 in plasma [3]: does not change significantly
TNF-α and IFN-γ in plasma [3]: do not change
levels of IL-6 and MCP-1 in plasma ([3]; n=11, P<0.05): significantly decrease
activity of matrix metalloproteinase (in situ zymography) (matrix metalloproteinase): reduce the activity of matrix metalloproteinase induced by CaPO4 daubing
infiltration of macrophages and leukocytes in adventitia in vascular walls [4]: reduce such effect
